pIC50: −log10 of the molar value.
Legend:
SKOV3 cells = assay: Cytotoxicity evaluation of drug loaded HA nanoparticles on ovarian cancer cells; type: cell-based; conditions: free drug
Source text: 9) Cytotoxicity Evaluation of Drug Loaded HA Nanoparticles on Ovarian Cancer Cells: […]

[1] = of the free drug; cited from earlier work
[2] = system: MDA-MB-231 breast cancer cell lines; assay: In vitro cell uptake of free doxorubicin (DOX) and DOX loaded HA polymers; type: cell-based; conditions: 20 μM, 1 h incubation, fluorescence microscopy
Procedure: In order to determine the pH altering effects of the hyaluronic acid-lipid modified polymers and cellular trafficking of drugs, a model fluorescent drug, doxorubicin, was encapsulated into the unmodified and modified HA polymers and tested on MDA-MB-231 breast cancer cell lines.
After 1 h of incubation, the cells were washed thrice with PBS and the uptake of DOX in the cells was observed using a fluorescence microscope.

[3] = Homo sapiens, SK-OV-3, 48 hour timepoint

Compound | pIC50 (SKOV3 cells; [3]) | logP [1] | uptake of DOX in the nucleus [2] | pIC50 (SKOV3 cells; 48 hour timepoint)
CC(=O)O[C@H]1C(=O)[C@@]2(C)[C@H]([C@H](OC(=O)c3ccccc3)[C@]3(O)C[C@H](OC(=O)[C@H](O)[C@@H](NC(=O)c4ccccc4)c4ccccc4)C(C)=C1C3(C)C)[C@]1(OC(C)=O)CO[C@@H]1C[C@@H]2O [Paclitaxel] | 8.00 |  |  | 
CC[C@@]1(O)C(=O)OCc2c1cc1n(c2=O)Cc2cc3c(CN(C)C)c(O)ccc3nc2-1 [Topotecan] | 6.66 | 0.8 |  | 
COc1cc([C@@H]2c3cc4c(cc3[C@@H](O[C@@H]3O[C@@H]5CO[C@@H](C)O[C@H]5[C@H](O)[C@H]3O)[C@H]3COC(=O)[C@H]23)OCO4)cc(OC)c1O [Etoposide] | 5.34 |  |  | 
CC(=O)[C@]1(O)Cc2c(O)c3c(c(O)c2[C@@H](O[C@H]2C[C@H](N)[C@H](O)[C@H](C)O2)C1)C(=O)c1ccccc1C3=O [Idarubicin] | 5.42 | 0.2 |  | 
CC[C@@]1(O)C(=O)OCc2c1cc1n(c2=O)Cc2cc3ccccc3nc2-1 [Camptothecin] | 6.09 |  |  | 
COc1cccc2c1C(=O)c1c(O)c3c(c(O)c1C2=O)C[C@@](O)(C(=O)CO)C[C@@H]3O[C@H]1C[C@H](N)[C@H](O)[C@H](C)O1 [Doxorubicin] |  | −0.5 | much lower in the nucleus | 5.24
